Measured values taken from ChEMBL document CHEMBL1127742, “Compass: predicting biological activities from molecular surface properties. Performance comparisons on a steroid benchmark” (J Med Chem, 1994).

Target: T1, Sex hormone-binding globulin (Homo sapiens) (UniProt P04278)
T1 sequence (whole entry): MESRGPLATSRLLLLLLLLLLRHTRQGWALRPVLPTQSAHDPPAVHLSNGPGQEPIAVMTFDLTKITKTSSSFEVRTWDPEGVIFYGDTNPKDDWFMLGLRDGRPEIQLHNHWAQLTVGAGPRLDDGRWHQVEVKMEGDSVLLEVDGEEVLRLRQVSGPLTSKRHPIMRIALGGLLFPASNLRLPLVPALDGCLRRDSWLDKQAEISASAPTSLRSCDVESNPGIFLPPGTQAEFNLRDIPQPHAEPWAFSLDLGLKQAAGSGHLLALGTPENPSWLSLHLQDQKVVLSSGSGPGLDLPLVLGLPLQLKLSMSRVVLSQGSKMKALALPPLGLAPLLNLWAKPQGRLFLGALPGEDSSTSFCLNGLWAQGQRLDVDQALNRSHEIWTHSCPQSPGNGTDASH
Description: Binding affinity against transport protein testosterone binding globulin.

Point of comparison: `C[C@]12C[C@H](O)[C@H]3[C@@H](CCC4=CC(=O)CC[C@@]43C)[C@@H]1CC[C@@H]2C(=O)CO`, Log 1/K 6.34. Against it:
- C[C@]12CCC(=O)C[C@@H]1CC[C@@H]1[C@@H]2CC[C@]2(C)[C@@H](O)CC[C@@H]12 — higher, 9.74
- CC(=O)[C@H]1CC[C@H]2[C@@H]3CCC4=CC(=O)CC[C@]4(C)[C@H]3CC[C@]12C — higher, 6.94
- C[C@]12CCC(=O)C=C1CC[C@@H]1[C@@H]2CC[C@@]2(C)[C@H]1CC[C@]2(O)C(=O)CO — higher, 7.2
- C[C@]12CCC(=O)C=C1CC[C@@H]1[C@@H]2[C@@H](O)C[C@@]2(C)[C@H]1CC[C@]2(O)C(=O)CO — within 0.2 log units, 6.2
- C[C@]12CC[C@@H]3c4ccc(O)cc4CC[C@H]3[C@@H]1C[C@@H](O)[C@@H]2O — higher, 6.63
- C[C@]12CC[C@H](O)C[C@@H]1CC[C@@H]1[C@@H]2CC[C@]2(C)[C@@H](O)CC[C@@H]12 — higher, 9.11
- C[C@]12CC[C@H](O)CC1=CCC1C2CC[C@]2(C)C(=O)CCC12 (stereo partly drawn) — higher, 7.82
- C[C@]12CCC(=O)C=C1CC[C@@H]1[C@@H]2C(=O)C[C@@]2(C)[C@H]1CC[C@]2(O)C(=O)CO — within 0.2 log units, 6.43
- C[C@]12CCC(=O)C=C1CCC1C3CC[C@H](C(=O)CO)[C@@]34C[C@H](OC4O)C12 (stereo partly drawn) — lower, 5.32
- C[C@]12CC[C@H]3[C@@H](CCC4=CC(=O)CC[C@@]43C)[C@@H]1CC[C@@H]2C(=O)CO — higher, 7.38
- CC(=O)[C@@]1(O)CC[C@H]2[C@@H]3CC=C4C[C@@H](O)CC[C@]4(C)[C@H]3CC[C@@]21C — within 0.2 log units, 6.36
- C[C@]12CC[C@H]3[C@@H](CCC4=CC(=O)CC[C@@]43C)[C@@H]1CC[C@@H]2O — higher, 9.2
- CC(=O)[C@@]1(O)CC[C@H]2[C@@H]3CCC4=CC(=O)CC[C@]4(C)[C@H]3CC[C@@]21C — higher, 7
- C[C@]12CCC(=O)C=C1CC[C@@H]1[C@@H]2CC[C@]2(C)C(=O)CC[C@@H]12 — higher, 7.46
- C[C@]12CC[C@@H](O)C[C@@H]1CC[C@@H]1[C@@H]2CC[C@]2(C)C(=O)CC[C@@H]12 — higher, 7.15
- CC(=O)[C@H]1CC[C@H]2[C@@H]3CC=C4C[C@@H](O)CC[C@]4(C)[C@H]3CC[C@]12C — higher, 7.15
- C[C@]12CC[C@@H](O)C[C@H]1CC[C@@H]1[C@@H]2CC[C@]2(C)C(=O)CC[C@@H]12 — within 0.2 log units, 6.15
